Data: patent US11352352B2, “Aminopyrimidine compound, preparation method therefor and use thereof” (BEIJING ADAMADLE BIOTECHNOLOGY LIMITED LIABILITY COMPANY, priority 2017, dated 2022)

How the values were obtained:
Experiment in all cases: Cell proliferation inhibition experiment, CellTiter-Glo (CTG) method
Assay type in all cases: cell-based
NCI-H1975 = settings: for IC50: Homo sapiens, NCI-H1975, 72 h, NCI-H1975 cells, CTG, 3 days; for A-431/NCI-H1975 Selectivity: ratio of A-431 IC50 to NCI-H1975 IC50
Protocol: (§1) Cell Proliferation Inhibition Experiment
(§2) Compounds were tested in the selected cell lines, and solvent is set as control, nine concentrations were detected with three parallel wells for each concentration.
(§3) 2. Reagents and Materials • 1) fetal bovine serum FBS (GIBCO, Cat #10099-141) • 2) CellTiter-Glo® Luminescent Cell Viability Assay (Promega, Cat #G7572) • 3) 96-well plate with flat clear bottom, black wall plates (Corning®, Cat #3340)
(§4) The first day: Incubation and plant of cells • 1) Cells in logarithmic growth phase were harvested and counted by cell counter. Cell viability was detected by trypan blue exclusion assay to ensure that the viability of each cell line was above 90%. • 2) Cell concentration was adjusted by diluting complete culture medium, and 90 μL cell suspension was added to a 96-well plate (T0 plate and drug plate to be tested) to make the cell density reach the specified concentration. • 3) Cells in 96-well plate were incubated overnight at condition of 37° C., 5% CO2 and 95% humidity.
(§5) The second day: Reading T0 plate • 1) 10 μL culture medium was added to T0 plate. • 2) CTG reagent was melt, while the cell plate was balanced to room temperature for 30 minutes. • 3) The same volume of CTG solution was added to each well. • 4) The cell plate was vibrated for 2 minutes on an orbital shaker to lyze the cells. • 5) The cell plate was placed at room temperature for 10 minutes to stabilize the cold light signal. • 6) The cold light value was read with EnVision.
(§6) Drug Addition • 1) Drug dilution. The compounds to be tested were dissolved and packaged, then a gradient elution was performed to obtain a solution diluted 10 times. • 2) Drug addition. […] drug solution was added into each well of the 96-well plate, which was inoculated cells, three parallel wells were set for each cell concentration.
(§7) The third day: reading plate at the terminal • 1) CTG reagent was melt, while the cell plate was balanced to room temperature for 30 minutes. • 2) The same volume of CTG solution was added to each well. • 3) The cell plate was vibrated for 2 minutes on an orbital shaker to lyze the cells. • 4) The cell plate was placed at room temperature for 10 minutes to stabilize the cold light signal. • 5) The cold light value was read with EnVision
(§8) Data were analyzed using GraphPad Prism 5.0 software, and non-linear S curve regression was used for fitting the data to give a dose-effect curve, IC50 value was calculated accordingly. Cell Survival Rate (%)=(Lumdrugs−Lumcontrol)/(Lumcell−Lumcontrol)×100%.

PC-9 = settings: Homo sapiens, PC-9, 72 h, PC-9 cells, 3 days
Protocol: as §1, §2, §3, §4, §5, §6, §7, §8

A-431 = settings: Homo sapiens, A-431, 72 h, A-431 cells, 3 days
Protocol: as §1, §2, §3, §4, §5
Drug Addition • 1) Drug dilution. The compounds to be tested were dissolved and packaged, then a gradient elution was performed to obtain a solution diluted 10 times. • 2) Drug addition. […] drug solution was added into each well of the 96-well plate, which was inoculated cells, three parallel wells were set for each cell concentration. The highest concentration of the compounds to be tested on A-431 was 30 μM, nine concentrations was set with 3 times dilution; while the highest concentration on NCI-H1975 and PC-9 was 1.111 μM, 9 concentrations was set with 3 times dilution. • 3) Culture. Cells in 96-well plates in which drugs have been added were cultured at condition of 37° C., 5% CO2 and 95% humidity for 3 days, and then CTG assay was performed respectively.
as §7, §8

Row | Compound | IC50 (NCI-H1975) [nM] | IC50 (PC-9) [nM] | IC50 (A-431) [nM] | A-431/NCI-H1975 Selectivity (NCI-H1975)
1 | C=CC(=O)Nc1cc(Nc2nccc(-c3ccc4c(cnn4C(C)C)c3)n2)c(OC)cc1N(C)CCN(C)C [compound 238] | 51.6 | 99.4 | 1940 | 37.6
2 | C=CC(=O)Nc1cc(Nc2cc(-c3ccc4cnn(C)c4c3)ncn2)c(OC)cc1N(C)C1CCN(C2CCOCC2)CC1 [compound 221] | 70.3 | 96 | 2440 | 34.7
3 | C=CC(=O)Nc1cc(Nc2cc(-c3ccc4c(cnn4C)c3)ncn2)c(OC)cc1N1CCN(C2CCN(C)CC2)CC1 [compound 133] | 9.9 | 10.7 | 598 | 60.4
4 | C=CC(=O)Nc1cc(Nc2nccc(-c3ccc4c(cnn4C)c3)n2)c(OCC)cc1N(C)CCN(C)C [compound 242] | 26.7 | 28.1 | 1200 | 45.0
5 | C=CC(=O)Nc1cc(Nc2cc(-c3ccc4c(cnn4C)c3)ncn2)c(OC)cc1N(C)CCNC(C)(C)C [compound 61] | 17.8 | 9.4 | 1620 | –
6 | C=CC(=O)Nc1cc(Nc2nccc(-c3ccc4c(cnn4C)c3)n2)c(OC)cc1N1CCC(N(CC)CC)CC1 [compound 262] | 124 | 52.7 | 2980 | 24.1
7 | C=CC(=O)Nc1cc(Nc2cc(-c3cc4cnn(C)c4cc3F)ncn2)c(OC)cc1N1CCC(N(CC)CC)CC1 [compound 193] | 52.8 | 30.9 | 1480 | 28.0
8 | C=CC(=O)Nc1cc(Nc2cc(-c3ccc4c(cnn4C)c3)ncn2)c(OC(F)F)cc1N1CCC(N(C)C)CC1 [compound 175] | 8.1 | 26 | 793 | 98.0
9 | C=CC(=O)Nc1cc(Nc2cc(-c3ccc4c(cnn4C)c3)ncn2)c(OC)cc1N(C)C1CCN(CCOC)C1 (centres unmarked) [compound 222] | 13.6 | 20.7 | 983 | 72.3
10 | C=CC(=O)Nc1cc(Nc2cc(-c3ccc4c(cnn4C)c3)ncn2)c(OC)cc1N1CCC(N2CCCC2=O)CC1 [compound 212] | 71.8 | 54.7 | 2030 | 28.3
11 | C=CC(=O)Nc1cc(Nc2cc(-c3ccc4cnn(C)c4c3)ncn2)c(OC)cc1N1CCN(CCN(C)C)CC1 [compound 77] | 34.5 | 16.4 | 1150 | 33.5
12 | C=CC(=O)Nc1cc(Nc2cc(-c3ccc4cnn(C)c4c3)ncn2)c(OC)cc1N1CCC(N2CC(OC)C2)CC1 [compound 207] | 10.2 | 5.6 | 895 | 87.7
13 | C=CC(=O)Nc1cc(Nc2cc(-c3ccc4c(cnn4C)c3)ncn2)c(OC(F)F)cc1NCCN(C)C [compound 122] | 5.2 | 11.6 | 580 | 111.5
14 | C=CC(=O)Nc1cc(Nc2nccc(-c3ccc4c(cnn4C)c3)n2)c(OC)cc1N(C)CCN1CCN(C2CC2)CC1 [compound 252] | 188 | 25.5 | 2990 | 16.0
15 | C=CC(=O)Nc1cc(Nc2cc(-c3ccc4c(cnn4C)c3)ncn2)c(OC(F)(F)F)cc1N(C)CCN(C)C [compound 151] | 58.9 | 79.9 | 2050 | 34.7
16 | C=CC(=O)Nc1cc(Nc2nccc(-c3ccc4c(cnn4C)c3)n2)c(OC)cc1N1CCC(N2CCN(C)CC2)CC1 [compound 230] | 68.2 | 59.4 | 1980 | 29.1
17 | C=CC(=O)Nc1cc(Nc2cc(-c3ccc4c(cnn4C)c3)ncn2)c(OC)cc1N1CCC2(CC1)COC2 [compound 107] | 16.5 | 17.8 | 1290 | 78.2

The next lines start with results.

Row | IC50 (NCI-H1975) [nM] | IC50 (PC-9) [nM] | IC50 (A-431) [nM] | Compound | A-431/NCI-H1975 Selectivity (NCI-H1975)
18 | 8 | 6.9 | 599 | C=CC(=O)Nc1cc(Nc2cc(-c3ccc4c(cnn4C)c3)ncn2)c(OC)cc1N(C)[C@@H]1CCN(C)C1 [compound 110] | –
19 | 14.1 | 12.5 | 986 | C=CC(=O)Nc1cc(Nc2cc(-c3ccc4c(cnn4C)c3)ncn2)c(OC)cc1N1CCOCC1 [compound 102] | 70.0
20 | 91.8 | 56.4 | 1760 | C=CC(=O)Nc1cc(Nc2cc(-c3ccc4nc(C)sc4c3)ncn2)c(OC)cc1N1CCC(N(CC)CC)CC1 [compound 191] | 19.2
21 | 51.6 | 32.4 | 2950 | C=CC(=O)Nc1cc(Nc2nccc(-c3ccc4c(cnn4C)c3)n2)c(OCC)cc1N(C)CCN(C)CC [compound 258] | 57.1
22 | 37.3 | 46.9 | 1520 | C=CC(=O)Nc1cc(Nc2cc(-c3ccc4c(cnn4C)c3)ncn2)c(CC)cc1N1CCC(N2CCOCC2)CC1 [compound 283] | 40.8
23 | 53.8 | 43.7 | 2030 | C=CC(=O)Nc1cc(Nc2cc(-c3ccc4c(cnn4C)c3)ncn2)c(OC(F)F)cc1OCCN1CCN(C)CC1 [compound 185] | 37.8
24 | 16.5 | 17.1 | 1050 | C=CC(=O)Nc1cc(Nc2cc(-c3ccc4cnn(C)c4c3)ncn2)c(OC(F)F)cc1N1CCC(N(CC)CC)CC1 [compound 167] | –
25 | 20.6 | 34.7 | 1620 | C=CC(=O)Nc1cc(Nc2cc(-c3ccc4c(cnn4C)c3)ncn2)c(OCC)cc1N1C[C@@H](C)N[C@@H](C)C1 [compound 265] | 78.9
26 | 42.9 | 34.6 | 2000 | C=CC(=O)Nc1c(OCCN(C)C)cc(OC)c(Nc2cc(-c3ccc4c(cnn4C)c3)ncn2)c1F [compound 178] | 46.7
27 | 75.1 | 67.2 | 2470 | C=CC(=O)Nc1cc(Nc2cc(-c3ccc4cnn(C)c4c3)ncn2)c(OC)cc1N(C)C1CCN(CCOC)CC1 [compound 225] | 32.9
28 | 6.1 | 5.9 | 1150 | C=CC(=O)Nc1cc(Nc2cc(-c3ccc4c(cnn4CC)c3)ncn2)c(OC)cc1N(C)CCN(C)C [compound 14] | 188.0
29 | 46.1 | 24.9 | 1570 | C=CC(=O)Nc1cc(Nc2cc(-c3ccc4c(cnn4C)c3)ncn2)c(OC)cc1N1CCN(C(C)=O)CC1 [compound 20] | 33.9
30 | 4 | 9.2 | 612 | C=CC(=O)Nc1cc(Nc2cc(-c3ccc4c(cnn4C)c3)ncn2)c(OC(F)F)cc1N(C)CCN(C)C [compound 287] | 152.9
31 | 56.6 | 45.6 | 1360 | C=CC(=O)Nc1cc(Nc2nccc(-c3ccc4c(cnn4C)c3)n2)c(OC)cc1N1CCN(CCN(C)C)CC1 [compound 113] | 24.0
32 | 9.1 | 18.5 | 1200 | C=CC(=O)Nc1cc(Nc2cc(-c3ccc4c(cnn4C)c3)ncn2)c(OC)cc1N(C)CCNC(C)C [compound 263] | 131.9
33 | 11.3 | 7.4 | 1040 | C=CC(=O)Nc1cc(Nc2cc(-c3ccc4cnn(C)c4c3)ncn2)c(OC)cc1N1CCC(N2CCN(C3COC3)CC2)CC1 [compound 211] | –
34 | 4.7 | 5.6 | 890 | C=CC(=O)Nc1cc(Nc2cc(-c3ccc4c(cnn4C)c3)ncn2)c(OC)cc1N(C)CCN(C)C [compound 1] | –
